The supplement of paper PMC10307832

What was measured:
Assay in all cases: relative viability (nuclei count vs DMSO), 5 days (fraction); higher = more cells survive
HCC-15 = system: HCC-15
In short: (§1)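 Lung cancer cell lines, seeded in 1536-well plates, were treated the following day by pin tool with a single drug or with five library-drug doses (not always all listed) in √10 steps on top of a fixed anchor-drug dose. Cells were fixed and nuclei stained in one step after 5 days, and nuclei were counted. Relative viability is the nuclei count for treated wells divided by that for vehicle wells, reported as medians of duplicate plates.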

COR-L 105 = system: COR-L 105
In short: as §1

HCC-366 = system: HCC-366
In short: as §1

EKVX = system: EKVX
In short: as §1

NCI-H1975 = system: NCI-H1975
In short: as §1

LXF-289 = system: LXF-289
In short: as §1

BEN = system: BEN
In short: as §1

NCI-H1755 = system: NCI-H1755
In short: as §1

HARA = system: HARA
In short: as §1

201T = system: 201T
In short: as §1

NCI-H1703 = system: NCI-H1703
In short: as §1

LU99A = system: LU99A
In short: as §1

NCI-H1734 = system: NCI-H1734
In short: as §1

NCI-H1993 = system: NCI-H1993
In short: as §1

NCI-H1650 = system: NCI-H1650
In short: as §1

HCC-78 = system: HCC-78
In short: as §1

SK-LU-1 = system: SK-LU-1
In short: as §1

COR-L23 = system: COR-L23
In short: as §1

NCI-H1944 = system: NCI-H1944
In short: as §1

HCC-827 = system: HCC-827
In short: as §1

NCI-H3122 = system: NCI-H3122
In short: as §1

NCI-H596 = system: NCI-H596
In short: as §1

CCCCCCCCCCCC1=C(O)C(=O)C=C(O)C1=O [Embelin] + CC1(C)CCC(c2ccc(Cl)cc2)=C(CN2CCN(c3ccc(C(=O)NS(=O)(=O)c4ccc(N[C@H](CCN5CCOCC5)CSc5ccccc5)c(S(=O)(=O)C(F)(F)F)c4)cc3)CC2)C1 [Navitoclax] (partner 0.5 µM)
relative viability (HCC-15; first compound 0.08 µM): 0.659 | relative viability (HCC-15; first compound 0.8 µM): 0.773 | relative viability (HCC-15; first compound 2.53 µM): 0.718 | relative viability (HCC-15; first compound 8 µM): 0.693 | relative viability (COR-L 105; first compound 0.08 µM): 0.758 | relative viability (COR-L 105; first compound 0.8 µM): 1.04 | relative viability (COR-L 105; first compound 2.53 µM): 0.748 | relative viability (COR-L 105; first compound 8 µM): 0.795 | relative viability (HCC-366; first compound 0.08 µM): 0.953 | relative viability (HCC-366; first compound 0.8 µM): 1.16 | relative viability (HCC-366; first compound 2.53 µM): 1.13 | relative viability (HCC-366; first compound 8 µM): 1.11 | relative viability (EKVX; first compound 0.08 µM): 0.913 | relative viability (EKVX; first compound 0.8 µM): 0.895 | relative viability (EKVX; first compound 2.53 µM): 0.917 | relative viability (EKVX; first compound 8 µM): 0.938 | relative viability (NCI-H1975; first compound 0.08 µM): 1.13 | relative viability (NCI-H1975; first compound 0.8 µM): 1.29 | relative viability (NCI-H1975; first compound 2.53 µM): 1.13 | relative viability (NCI-H1975; first compound 8 µM): 1.11 | relative viability (LXF-289; first compound 0.08 µM): 1.01 | relative viability (LXF-289; first compound 0.8 µM): 0.959 | relative viability (LXF-289; first compound 2.53 µM): 1.03 | relative viability (LXF-289; first compound 8 µM): 0.953 | relative viability (BEN; first compound 0.08 µM): 0.0728 | relative viability (BEN; first compound 0.8 µM): 0.0709 | relative viability (BEN; first compound 2.53 µM): 0.0714 | relative viability (BEN; first compound 8 µM): 0.0735 | relative viability (NCI-H1755; first compound 0.08 µM): 0.993 | relative viability (NCI-H1755; first compound 0.8 µM): 1.03 | relative viability (NCI-H1755; first compound 2.53 µM): 1.07 | relative viability (NCI-H1755; first compound 8 µM): 0.991 | relative viability (HARA; first compound 0.08 µM): 1.12 | relative viability (HARA; first compound 0.8 µM): 1.2 | relative viability (HARA; first compound 2.53 µM): 1.12 | relative viability (HARA; first compound 8 µM): 1.13 | relative viability (201T; first compound 0.08 µM): 1.18 | relative viability (201T; first compound 0.8 µM): 1.19 | relative viability (201T; first compound 2.53 µM): 1.19 | relative viability (201T; first compound 8 µM): 1.17 | relative viability (NCI-H1703; first compound 0.08 µM): 1.29 | relative viability (NCI-H1703; first compound 0.8 µM): 1.26 | relative viability (NCI-H1703; first compound 2.53 µM): 1.06 | relative viability (NCI-H1703; first compound 8 µM): 1.06 | relative viability (LU99A; first compound 0.08 µM): 0.993 | relative viability (LU99A; first compound 0.8 µM): 0.943 | relative viability (LU99A; first compound 2.53 µM): 0.864 | relative viability (LU99A; first compound 8 µM): 0.755 | relative viability (NCI-H1734; first compound 0.08 µM): 0.847 | relative viability (NCI-H1734; first compound 0.8 µM): 1.09 | relative viability (NCI-H1734; first compound 2.53 µM): 1.23 | relative viability (NCI-H1734; first compound 8 µM): 0.894 | relative viability (NCI-H1993; first compound 0.08 µM): 0.958 | relative viability (NCI-H1993; first compound 0.8 µM): 0.84 | relative viability (NCI-H1993; first compound 2.53 µM): 0.916 | relative viability (NCI-H1993; first compound 8 µM): 0.893 | relative viability (NCI-H1650; first compound 0.08 µM): 1.27 | relative viability (NCI-H1650; first compound 0.8 µM): 1.37 | relative viability (NCI-H1650; first compound 2.53 µM): 1.57 | relative viability (NCI-H1650; first compound 8 µM): 1.36 | relative viability (HCC-78; first compound 0.08 µM): 0.797 | relative viability (HCC-78; first compound 0.8 µM): 0.931 | relative viability (HCC-78; first compound 2.53 µM): 0.863 | relative viability (HCC-78; first compound 8 µM): 0.762 | relative viability (SK-LU-1; first compound 0.08 µM): 0.808 | relative viability (SK-LU-1; first compound 0.8 µM): 1.16 | relative viability (SK-LU-1; first compound 2.53 µM): 0.786 | relative viability (SK-LU-1; first compound 8 µM): 0.832 | relative viability (COR-L23; first compound 0.08 µM): 0.991 | relative viability (COR-L23; first compound 0.8 µM): 1.32 | relative viability (COR-L23; first compound 2.53 µM): 1.19 | relative viability (COR-L23; first compound 8 µM): 1.22 | relative viability (NCI-H1944; first compound 0.08 µM): 1.01 | relative viability (NCI-H1944; first compound 0.8 µM): 1.11 | relative viability (NCI-H1944; first compound 2.53 µM): 1.06 | relative viability (NCI-H1944; first compound 8 µM): 0.941 | relative viability (HCC-827; first compound 0.08 µM): 1 | relative viability (HCC-827; first compound 0.8 µM): 1.09 | relative viability (HCC-827; first compound 2.53 µM): 1.03 | relative viability (HCC-827; first compound 8 µM): 1.04 | relative viability (NCI-H3122; first compound 0.08 µM): 1.05 | relative viability (NCI-H3122; first compound 0.8 µM): 1.01 | relative viability (NCI-H3122; first compound 2.53 µM): 0.985 | relative viability (NCI-H3122; first compound 8 µM): 1.02 | relative viability (NCI-H596; first compound 0.08 µM): 0.934 | relative viability (NCI-H596; first compound 0.8 µM): 1.06 | relative viability (NCI-H596; first compound 2.53 µM): 1.12 | relative viability (NCI-H596; first compound 8 µM): 0.908
